From patent US20230348426A1, “OXOPYRROLIDINE FPR2 AGONISTS” (Bristol-Myers Squibb Company, priority 2020, published 2023)

Legend:
human FPR2 = human FPR2 (Homo sapiens (Human), UniProt P25090); test: FPR2 cyclic adenosine monophosphate (cAMP) assay; format: cell-based; details: CHO cells overexpressing human FPR2; forskolin 5 µM; inhibition of cAMP production; read-out: hFPR2 cAMP2 EC50
Procedure, shortened: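 Inhibition of forskolin-driven (5 µM) cAMP, with 200 µM IBMX, measured in human FPR2-expressing CHO cells, 2,000 per well, 30 min at room temperature; compounds tested 0.020 nM to 100 µM in 1% DMSO. HTRF 665/590 ratio converted to cAMP via calibration curve, then 4-parameter fit.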

human FPR1 = human FPR1 (Homo sapiens (Human), UniProt P21462); test: FPR1 cyclic adenosine monophosphate (cAMP) assay; format: cell-based; details: CHO cells overexpressing human FPR1; forskolin 10 µM; inhibition of cAMP production; read-out: hFPR1 cAMP EC50
Procedure, shortened: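 Human FPR1-expressing CHO cells were used at 4,000 per well, with compound at 0.020 nM–100 µM in 1% DMSO. Potency came from a 4-parameter logistic fit.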

Sequence of human FPR1 (P21462 whole entry): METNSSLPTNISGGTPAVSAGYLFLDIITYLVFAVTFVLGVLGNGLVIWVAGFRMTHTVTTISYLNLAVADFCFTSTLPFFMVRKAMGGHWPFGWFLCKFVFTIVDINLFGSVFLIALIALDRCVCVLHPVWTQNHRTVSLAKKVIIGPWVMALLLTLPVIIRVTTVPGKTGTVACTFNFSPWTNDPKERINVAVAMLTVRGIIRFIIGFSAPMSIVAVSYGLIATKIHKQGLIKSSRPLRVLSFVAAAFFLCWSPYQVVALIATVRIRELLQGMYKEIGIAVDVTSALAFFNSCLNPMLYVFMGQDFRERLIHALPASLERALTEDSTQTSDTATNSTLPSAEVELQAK
Sequence of human FPR2 (P25090 whole entry): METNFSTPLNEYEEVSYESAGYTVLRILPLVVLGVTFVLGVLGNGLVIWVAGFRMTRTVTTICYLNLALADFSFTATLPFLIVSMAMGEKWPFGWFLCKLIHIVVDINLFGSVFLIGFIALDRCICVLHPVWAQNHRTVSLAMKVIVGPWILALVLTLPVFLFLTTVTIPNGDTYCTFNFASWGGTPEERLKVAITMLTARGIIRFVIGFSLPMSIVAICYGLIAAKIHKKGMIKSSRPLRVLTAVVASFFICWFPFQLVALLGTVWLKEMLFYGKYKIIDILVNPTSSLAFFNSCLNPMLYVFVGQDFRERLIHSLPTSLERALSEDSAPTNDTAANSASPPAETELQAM

Compound	EC50 (human FPR2) [nM]	EC50 (human FPR1) [nM]
CCn1ccc(F)c(N2C[C@@H](c3c(F)cc(OC)cc3F)[C@H](NC(=O)c3ccc(OC(F)F)cc3)C2=O)c1=O [Example 373]	12.5	233
CCn1cncc(N2C[C@@H](c3c(F)cc(OC)cc3F)[C@H](NC(=O)c3ccc(Cl)cc3)C2=O)c1=O [Example 378]	4.6	3800
COc1cc(F)c([C@@H]2CN(c3c(C)ccn(C(F)F)c3=O)C(=O)[C@H]2NC(=O)c2ccc(OC(F)F)cc2)c(F)c1 [Example 381]	4	10
COc1ccc([C@@H]2CN(c3c(C)ccn(C(F)F)c3=O)C(=O)[C@H]2NC(=O)c2ccc(OC(F)(F)F)cc2)cc1 [Example 383]	5.5	2
COc1ccc([C@@H]2CN(c3c(C)ccn(CC4CC4)c3=O)C(=O)[C@H]2NC(=O)c2ccc(Cl)cc2)cc1 [Example 385]	7.1	1
COCC(CO)n1ccc(C)c(N2C[C@@H](c3ccc(OC)cc3)[C@H](NC(=O)c3ccc(OC(F)F)cc3)C2=O)c1=O (stereo partly drawn) [Example 389]	< 5	< 5
CCN1CCC(N2C[C@@H](c3c(F)cc(OC)cc3F)[C@H](NC(=O)c3ccc(OC(F)F)cc3)C2=O)C1=O (stereo partly drawn) [Example 390]	4.8	76
COc1ccc([C@@H]2CN(c3cccn(CC(C)O)c3=O)C(=O)[C@H]2NC(=O)c2ccc(Cl)cc2)cc1 (stereo partly drawn) [Example 391]	5.5	36
COc1cc(F)c([C@@H]2CN(c3cccnc3OCCO)C(=O)[C@H]2NC(=O)c2ccc(OC(F)(F)F)cc2)c(F)c1 [Example 396]	9.5	39
COCC(CO)n1cccc(N2C[C@@H](c3ccc(OC)cc3)[C@H](NC(=O)c3ccc(Cl)cc3)C2=O)c1=O (stereo partly drawn) [Example 397]	2.7	15
COCCn1nccc(N2C[C@@H](c3c(F)cc(OC)cc3F)[C@H](NC(=O)c3ccc(OC(F)F)cc3)C2=O)c1=O [Example 398]	7.2	11
COc1ccc([C@@H]2CN(c3c(C)ccn(CCC(F)(F)F)c3=O)C(=O)[C@H]2NC(=O)c2ccc(Cl)cc2)c(F)c1 [Example 401]	3.7	7
COc1ccc([C@@H]2CN(c3c(C)ccn(CCC(F)(F)F)c3=O)C(=O)[C@H]2NC(=O)c2ccc(OC(F)F)cc2)c(F)c1 [Example 402]	2.8	3
COc1ccc([C@@H]2CN(c3cccn(CC(C)OC)c3=O)C(=O)[C@H]2NC(=O)c2ccc(OC(F)(F)F)cc2)cc1 (stereo partly drawn) [Example 405]	4.7	2
COCC(CO)n1cccc(N2C[C@@H](c3ccc(Cl)cc3)[C@H](NC(=O)c3ccc(Cl)cc3)C2=O)c1=O (stereo partly drawn) [Example 406]	2.9	9
COc1cc(F)c([C@H]2[C@H](NC(=O)c3ccc(OC(F)F)cc3)C(=O)N(c3cccn(CCO)c3=O)[C@@H]2C)c(F)c1 [Example 407]	7.8	640
COCCOc1ncccc1N1C[C@@H](c2c(F)cc(OC)cc2F)[C@H](NC(=O)c2ccc(OC(F)(F)F)cc2)C1=O [Example 408]	3.5	9

Compound	EC50 (human FPR2) [nM]	EC50 (human FPR1) [nM]
CC(O)Cn1cccc(N2C[C@@H](c3ccc(Cl)cc3)[C@H](NC(=O)c3ccc(OC(F)F)cc3)C2=O)c1=O (stereo partly drawn) [Example 409]	6.3	36
COCCNc1ccnc(N2C[C@@H](c3c(F)cc(OC)cc3F)[C@H](NC(=O)c3ccc(Cl)cc3)C2=O)c1C(F)(F)F [Example 410]	11.7	3300
COCCOc1ncccc1N1C[C@@H](c2c(F)cc(OC)cc2F)[C@H](NC(=O)c2ccc(OC(F)F)cc2)C1=O [Example 412]	7.6	93
COCC(CO)n1cccc(N2C[C@@H](c3ccc(Cl)cc3)[C@H](NC(=O)c3ccc(Cl)cc3)C2=O)c1=O (stereo partly drawn) [Example 414]	4.7	19
Cc1ccn(CC(F)F)c(=O)c1N1C[C@@H](c2ccc(Cl)cc2)[C@H](NC(=O)c2ccc(OC(F)F)cc2)C1=O [Example 415]	6.8	3
COc1cc(F)c([C@@H]2CN(c3cccn(CC(OC)C(F)(F)F)c3=O)C(=O)[C@H]2NC(=O)c2ccc(Cl)cc2)c(F)c1 (stereo partly drawn) [Example 417]	2.9	17
COc1ccc([C@@H]2CN(c3cccn(CC(C)OC)c3=O)C(=O)[C@H]2NC(=O)c2ccc(OC(F)F)cc2)c(F)c1 (stereo partly drawn) [Example 418]	2.7	4
COc1cc(F)c([C@@H]2CN(c3nccc(NCCO)c3C(F)(F)F)C(=O)[C@H]2NC(=O)c2ccc(Cl)cc2)c(F)c1 [Example 419]	4.8	110
COc1cc(F)c([C@@H]2CN(c3nccc(N4CCOCC4)c3C(F)(F)F)C(=O)[C@H]2NC(=O)c2ccc(Cl)cc2)c(F)c1 [Example 420]	7.3	51
COc1cc(F)c([C@@H]2CN(c3c(C)ccn(CC(F)F)c3=O)C(=O)[C@H]2NC(=O)c2ccc(Cl)cc2)c(F)c1 [Example 421]	3.3	15
COCCNc1ccnc(N2C[C@@H](c3c(F)cc(OC)cc3F)[C@H](NC(=O)c3ccc(Cl)cc3)C2=O)c1C(F)(F)F [Example 423]	4.7	1100
COCC(CO)n1ccc(C)c(N2C[C@@H](c3c(F)cc(OC)cc3F)[C@H](NC(=O)c3ccc(OC(F)(F)F)cc3)C2=O)c1=O (stereo partly drawn) [Example 427]	4.4	2
COCC(C(=O)N(C)C)n1cccc(N2C[C@@H](c3ccc(OC)cc3F)[C@H](NC(=O)c3ccc(OC(F)F)cc3)C2=O)c1=O (stereo partly drawn) [Example 428]	9	8
COc1cc(F)c([C@@H]2CN(c3c(C)ccn(CCC(F)(F)F)c3=O)C(=O)[C@H]2NC(=O)c2ccc(Cl)cc2)c(F)c1 [Example 430]	3.3	5
COc1ccnc(N2C(=O)[C@@H](NC(=O)c3ccc(Cl)cc3)[C@H](c3c(F)cc(OC)cc3F)[C@@H]2C)c1 [Example 432]	9.1	3800
COc1ccc([C@@H]2CN(c3cccn(CC(C)O)c3=O)C(=O)[C@H]2NC(=O)c2ccc(OC(F)F)cc2)cc1 (stereo partly drawn) [Example 434]	4.4	10

Now from value to molecule:

EC50 (human FPR2) [nM]	EC50 (human FPR1) [nM]	Compound
1.6	3	COc1ccc([C@@H]2CN(c3c(C)ccn(CCO)c3=O)C(=O)[C@H]2NC(=O)c2ccc(OC(F)(F)F)cc2)c(F)c1 [Example 375]
0.4	4	COc1ccc([C@@H]2CN(c3c(C)ccn(CC(F)F)c3=O)C(=O)[C@H]2NC(=O)c2ccc(OC(F)F)cc2)c(F)c1 [Example 376]
1.6	5	COc1ccc([C@@H]2CN(c3c(C)ccn(CC(F)F)c3=O)C(=O)[C@H]2NC(=O)c2ccc(Cl)cc2)c(F)c1 [Example 377]
2.6	320	COc1cc(F)c([C@@H]2CN(c3c(C)ccn(CC(=O)N4CCOCC4)c3=O)C(=O)[C@H]2NC(=O)c2ccc(Cl)cc2)c(F)c1 [Example 379]
1.8	3	COc1ccc([C@@H]2CN(c3cccn(CC(OC)C(F)(F)F)c3=O)C(=O)[C@H]2NC(=O)c2ccc(Cl)cc2)c(F)c1 (stereo partly drawn) [Example 380]
1.9	1	COc1ccc([C@@H]2CN(c3c(C)ccn(C(F)F)c3=O)C(=O)[C@H]2NC(=O)c2ccc(OC(F)F)cc2)cc1 [Example 384]
2.4	1	COc1ccc([C@@H]2CN(c3c(C)ccn(CCC(F)(F)F)c3=O)C(=O)[C@H]2NC(=O)c2ccc(Cl)cc2)cc1 [Example 386]
2.2	1	COc1ccc([C@@H]2CN(c3c(C)ccn(CCC(F)(F)F)c3=O)C(=O)[C@H]2NC(=O)c2ccc(OC(F)F)cc2)cc1 [Example 387]
2.4	2	COc1ccc([C@@H]2CN(c3cccn(CC(OC)C(F)(F)F)c3=O)C(=O)[C@H]2NC(=O)c2ccc(Cl)cc2)cc1 (stereo partly drawn) [Example 393]
1.9	11	COc1ccc([C@@H]2CN(c3c(C)ccn(CCO)c3=O)C(=O)[C@H]2NC(=O)c2ccc(Cl)cc2)c(F)c1 [Example 394]
2.4	1	COc1ccc([C@@H]2CN(c3cccn(CC(C)OC)c3=O)C(=O)[C@H]2NC(=O)c2ccc(OC(F)(F)F)cc2)c(F)c1 (stereo partly drawn) [Example 395]
2.6	120	COCC(CO)n1cccc(N2C[C@@H](c3ccc(OC)cc3)[C@H](NC(=O)c3ccc(Cl)cc3)C2=O)c1=O (stereo partly drawn) [Example 411]
0.6	120	COCCOc1ncccc1N1C[C@@H](c2c(F)cc(OC)cc2F)[C@H](NC(=O)c2ccc(Cl)cc2)C1=O [Example 413]
1.7	1	COc1ccc([C@@H]2CN(c3cccn(CC(OC)C(F)(F)F)c3=O)C(=O)[C@H]2NC(=O)c2ccc(OC(F)F)cc2)cc1 (stereo partly drawn) [Example 416]
1.1	3	COCCn1ccc(C)c(N2C[C@@H](c3c(F)cc(OC)cc3F)[C@H](NC(=O)c3ccc(Cl)cc3)C2=O)c1=O [Example 422]
2.2	11	CC(O)Cn1cccc(N2C[C@@H](c3ccc(Cl)cc3)[C@H](NC(=O)c3ccc(Cl)cc3)C2=O)c1=O (stereo partly drawn) [Example 424]
2.3	4	COCC(CO)n1ccc(C)c(N2C[C@@H](c3c(F)cc(OC)cc3F)[C@H](NC(=O)c3ccc(OC(F)F)cc3)C2=O)c1=O (stereo partly drawn) [Example 426]
1.8	1	COc1ccc([C@@H]2CN(c3cccn(CC(OC)C(F)(F)F)c3=O)C(=O)[C@H]2NC(=O)c2ccc(OC(F)(F)F)cc2)cc1 (stereo partly drawn) [Example 433]
